The target in data set [1] is T1, Solute carrier family 22 member 1 (Mus musculus, UniProt O08966).
T1 sequence (O08966 whole entry): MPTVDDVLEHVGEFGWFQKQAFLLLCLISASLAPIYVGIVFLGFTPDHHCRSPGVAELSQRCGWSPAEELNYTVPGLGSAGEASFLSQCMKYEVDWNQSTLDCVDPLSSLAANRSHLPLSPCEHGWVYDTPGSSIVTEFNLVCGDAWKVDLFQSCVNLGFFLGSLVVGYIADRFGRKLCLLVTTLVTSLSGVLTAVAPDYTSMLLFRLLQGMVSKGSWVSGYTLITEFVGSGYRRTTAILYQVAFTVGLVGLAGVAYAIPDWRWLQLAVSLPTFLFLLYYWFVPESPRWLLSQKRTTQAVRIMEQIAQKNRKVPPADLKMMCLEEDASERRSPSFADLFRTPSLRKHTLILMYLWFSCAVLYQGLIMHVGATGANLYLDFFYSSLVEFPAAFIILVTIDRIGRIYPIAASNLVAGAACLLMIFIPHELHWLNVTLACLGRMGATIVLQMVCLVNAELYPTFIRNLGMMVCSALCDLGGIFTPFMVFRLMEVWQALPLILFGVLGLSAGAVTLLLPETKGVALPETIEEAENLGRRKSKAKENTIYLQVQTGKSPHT
The data set is described as follows: (§1) TP_TRANSPORTER: inhibition of MPP+ uptake (MPP+: 1 uM) in Xenopus laevis oocytes. It is filed as functional, cell-based, Oocyte.

Data set [2] deals with T2, Solute carrier family 22 member 2 (Mus musculus, UniProt O70577).
T2 sequence (O70577 whole entry): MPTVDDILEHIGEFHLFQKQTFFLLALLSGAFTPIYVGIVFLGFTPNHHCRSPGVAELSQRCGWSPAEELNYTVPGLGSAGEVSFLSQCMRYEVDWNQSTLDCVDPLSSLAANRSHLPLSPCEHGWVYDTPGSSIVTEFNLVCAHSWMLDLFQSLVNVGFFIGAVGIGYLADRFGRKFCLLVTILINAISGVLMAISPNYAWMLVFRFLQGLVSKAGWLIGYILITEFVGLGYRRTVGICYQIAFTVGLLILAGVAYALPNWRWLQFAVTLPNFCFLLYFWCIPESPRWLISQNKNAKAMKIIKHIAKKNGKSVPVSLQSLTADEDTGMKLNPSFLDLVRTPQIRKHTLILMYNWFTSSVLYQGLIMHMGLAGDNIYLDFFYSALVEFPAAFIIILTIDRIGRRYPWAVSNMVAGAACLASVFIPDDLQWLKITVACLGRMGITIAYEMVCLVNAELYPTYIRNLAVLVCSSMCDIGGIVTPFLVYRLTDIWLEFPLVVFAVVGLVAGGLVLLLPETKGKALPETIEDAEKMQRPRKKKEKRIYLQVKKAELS
The description is as §1. It is filed as functional, cell-based, Oocyte.

Substrate in data set [3]: CC[N+](CC)(CC)CC
The data set is described as follows: cells, lysate or membranes named.

Substrate in data set [4]: C[n+]1ccc(-c2ccccc2)cc1
The data set is described as follows: TP_TRANSPORTER: uptake in Xenopus laevis oocytes. It is filed as functional, cell-based, Oocyte.

For `C[N+](C)(C)CCO` [CHOLINE], the IC50 in data set [1] is 55 µM; in data set [2] it was 217 µM.

As to `CN/C(=N/CCSCc1nc[nH]c1C)NC#N` [CIMETIDINE], the IC50 stood at 0.59 µM in data set [1] and 8 µM in data set [2]. With `CNC(=O)c1cccnc1` [NICOTINYL METHYLAMIDE], the IC50 in data set [1] was found to be 7340 µM; in data set [2], 13700 µM. For `CCN(CC)CCNC(=O)c1ccc(N)cc1` [PROCAINAMIDE], in that order: 3.9 µM and 312 µM. Take `C=C[C@H]1C[N@@]2CC[C@H]1C[C@H]2[C@H](O)c1ccnc2ccc(OC)cc12` [QUININE]: the concentration for half-maximal inhibition (IC50) in data set [2] was determined as 2.8 µM. Turning to `CC[N+](CC)(CC)CC` [TETRYLAMMONIUM], the figures for the IC50 in data set [1] and in data set [2] were 0.54 µM and 3.5 µM, respectively.

B1: Solute carrier family 22 member 2 (Mus musculus) (protein)
chain: T2 sequence (O70577 whole entry)
On to B1, for which the Km in data set [3] turned out to be 35.7 µM; in data set [4], 24 µM.

B2: Solute carrier family 22 member 1 (Mus musculus) (protein)
chain: T1 sequence (O08966 whole entry)
On to B2, for which the Km in data set [4] was 10 µM.

By IC50 is commonly meant the midpoint of a concentration-inhibition curve. Usually Km stands for the concentration of substrate that gives half-maximal velocity.

The values are drawn from ChEMBL document CHEMBL2074047, “Functional characterization of mouse cation transporter mOCT2 compared with mOCT1” (Biochem Biophys Res Commun, 2002).
